The source made the active and inactive calls.
How the values were obtained:
Format in all cases: functional, organism-based
Candida albicans = assay: Antimicrobial activity against Candida albicans ATCC 10231 assessed as inhibition of visible growth measured after 16 to 20 hrs by broth microdilution method
Enterococcus faecalis = assay: Antimicrobial activity against Enterococcus faecalis ATCC 29212 assessed as inhibition of visible growth measured after 16 to 20 hrs by broth microdilution method
Bacillus thuringiensis = assay: Antimicrobial activity against Bacillus thuringiensis SCSIO BT01 assessed as inhibition of visible growth measured after 16 to 20 hrs by broth microdilution method
Staphylococcus aureus = assay: Antimicrobial activity against Staphylococcus aureus ATCC 29213 assessed as inhibition of visible growth measured after 16 to 20 hrs by broth microdilution method
Bacillus subtilis = assay: Antimicrobial activity against Bacillus subtilis SCSIO BS01 assessed as inhibition of visible growth measured after 16 to 20 hrs by broth microdilution method
Escherichia coli = assay: Antimicrobial activity against Escherichia coli ATCC 25922 assessed as inhibition of visible growth measured after 16 to 20 hrs by broth microdilution method
Micrococcus luteus = assay: Antimicrobial activity against Micrococcus luteus SCSIO ML01 assessed as inhibition of visible growth measured after 16 to 20 hrs by broth microdilution method

Measured: Activity

CC[C@H](C)[C@@H]1NC(=O)[C@@H](CC(C)C)NC(=O)[C@@H](C(C)C)NC(=O)[C@H](C(C)C)NC(=O)[C@@H](C(C)C)NC(=O)[C@H](Cc2ccc(O)cc2)NC1=O
inactive: all assays above

CC[C@H](C)[C@H](NC(=O)[C@@H](CC(C)C)NC(=O)[C@H](NC(=O)[C@@H](NC(=O)[C@H](N)C(C)C)C(C)C)C(C)C)C(=O)N[C@@H](Cc1ccc(O)cc1)C(=O)O
inactive: all assays above

CC(C)C[C@@H](NC(=O)[C@H](NC(=O)[C@@H](NC(=O)[C@H](N)C(C)C)C(C)C)C(C)C)C(=O)N[C@H](C(=O)N[C@@H](Cc1ccc(O)cc1)C(=O)O)C(C)C
inactive: all assays above

CC(C)C[C@H]1NC(=O)[C@@H](C(C)C)NC(=O)[C@H](C(C)C)NC(=O)[C@@H](C(C)C)NC(=O)[C@H](Cc2ccc(O)cc2)NC(=O)[C@H](C(C)C)NC1=O
inactive: all assays above

Reference: ChEMBL document CHEMBL2331447, “Nocardiamides A and B, two cyclohexapeptides from the marine-derived actinomycete Nocardiopsis sp. CNX037” (J Nat Prod, 2013)
